Data taken from patent publication US20210322417A1, “GASTRIC CANCER TREATMENTS” (The Jackson Laboratory, priority 2018, published 2021).

What was measured:
[1] = test system: CSK null OE19 cells; assay: CellTiter-Glo cell viability assay, CSK null OE19; assay type: cell-based, human; details: 6 days
Procedure: (§3) Then N87 and OE19 cells were infected with the corresponding viruses and the Lapatinib resistance was examined by treating the cells with indicated doses of Lapatinib for 6 days. Cell viability assay was performed as described below at the end of treatment.
(§4) For the cell viability assays, 4,000 cells/each well in a 96-well plate were treated with indicated drugs for 6 days and cell viabilities were measured using the CellTiter-Glo® luminescent cell viability assay kit according to the manufacturer's instructions (Promega). The luminescence intensity was measured using a multi-label plate reader (SpectraMax M5, Molecular Devices). The cell viabilities were calculated as relative values compared to the untreated controls.

[2] = test system: PTEN null OE19 cells; assay: CellTiter-Glo cell viability assay, PTEN null OE19; assay type: cell-based, human; details: 6 days
Procedure: as §3, §4

[3] = test system: OE19 cells transduced with non-targeting gRNA; assay: CellTiter-Glo cell viability assay, control OE19; assay type: cell-based, human; details: indicated doses of the agent in combination with 0.05 μM Lapatinib, 6 days
Text: Viral particles were generated as described above.

[4] = test system: OE19 cells transduced with non-targeting gRNA; assay: Caspase-Glo 3/7 apoptosis assay, control cells; assay type: cell-based, human; details: Lapatinib 48 h treatment
Procedure: (§1) We examined apoptosis induced by Lapatinib treatment in CSK or PTEN null cells as well as the control cells by measuring caspase-3/7 activation (Caspase-Glo assay).
(§2) Caspase activity was detected by using Caspase-Glo 3/7 assay kit (Promega). Briefly. The GC cells were seeded in 96-well white luminometer assay plates at a density of 4,000 cells per well and incubated at 37° C. Cells were treated with Lapatinib for 48 h, 100 ul caspase 3/7 reagents were added to each well and incubated for 1 h on rotary shaker at room temperature. The luminescence intensity was measured using a multi-label plate reader (SpectraMax M5, Molecular Devices).

[5] = test system: CSK null OE19 cells; assay: Caspase-Glo 3/7 apoptosis assay, CSK null cells; assay type: cell-based, human; details: Lapatinib 48 h treatment
Procedure: as §1, §2

[6] = test system: PTEN null OE19 cells; assay: Caspase-Glo 3/7 apoptosis assay, PTEN null cells; assay type: cell-based, human; details: Lapatinib 48 h treatment
Procedure: as §1, §2

[7] = test system: N87-WT tumors; assay: Xenograft tumor model, N87-WT; assay type: in vivo, mice; details: lapatinib dosing test, three weeks of treatment
Text: Tumors were induced by injecting N87-WT. […] Drug treatment was initiated when tumors reached a volume of 150-250 mm^3. Mice were randomly divided into seven treatment groups including 8-10 mice in each group: 1) vehicle only, 2) lapatinib only, 3) lapatinib+trametinib, 4) lapatinib+copanlisib, 5) trametinib+copanlisib, 6) lapatinib+trametinib+copanlisib, and 7) 5-FU.

[8] = test system: N87-CSK−/− tumors; details: lapatinib dosing test, three weeks of treatment; N87-CSK−/− xenograft, compared to N87-WT
[9] = test system: HER2-amplified GC; details: HER2-positive GC patients, clinical trial data; cited from earlier work
[10] = test system: N87-PTEN−/− tumors; assay: Xenograft tumor model, N87-PTEN−/−; details: lapatinib dosing test, three weeks of treatment, compared to N87-WT
[11] = AZD0530 at highest concentration (1 μM) in combination with 0.05 μM Lapatinib
[12] = 0.1 μM of the agent in combination with 0.05 μM Lapatinib
[13] = indicated doses of the agent in combination with 0.05 μM Lapatinib

## CN1CCN(CCOc2cc(OC3CCOCC3)c3c(Nc4c(Cl)ccc5c4OCO5)ncnc3c2)CC1 [AZD0530, Saracatinib]
[1]; [11]
  cells survived: 9.15±0.88%
[2]; [11]
  cells survived: 42.49±2.54%

## COc1c(OCCCN2CCOCC2)ccc2c1N=C(NC(=O)c1cnc(N)nc1)N1CCN=C21 [Copanlisib]
[1]; [12]
  effect on cell growth: significantly inhibited the cell growth, but not completely
[1]; [13]
  effect on cell growth/viability: inhibited the cell growth
[2]; [12]
  effect on cell growth: significantly inhibited the cell growth, but not completely
[2]; [13]
  effect on cell growth/viability: inhibited the cell growth
[3]
  effect on cell growth: inhibited the cell growth

## CS(=O)(=O)CCNCc1ccc(-c2ccc3ncnc(Nc4ccc(OCc5cccc(F)c5)c(Cl)c4)c3c2)o1 [Lapatinib]
[4]
  fold of caspase-3/7 activity compared with vehicle treated cells: 3.79±0.16 fold
[5]
  fold of caspase-3/7 activity compared with vehicle treated cells: 1.55±0.16 fold
[6]
  fold of caspase-3/7 activity compared with vehicle treated cells: 1.50±0.10 fold
[1]; 0.05 μM Lapatinib alone
  effect on cell growth: could not inhibit the growth
[2]; 0.05 μM Lapatinib alone
  effect on cell growth: could not inhibit the growth
[7]
  tumor sensitivity to treatment: sensitive to lapatinib treatment
[8]
  tumor sensitivity to treatment: relatively insensitive to lapatinib
[9]
  survival: failed to improve survival
[10]
  tumor sensitivity to treatment: resistant to lapatinib treatment
